Test results as given in patent US12139526B2, “Modified chimeric receptors and related compositions and methods” (Juno Therapeutics, Inc., priority 2015, dated 2024).
Each block holds one molecule with its values, some of them ahead of it.

What was measured:
Test in all cases: REVEAL Epitope Discovery System in vitro MHC-peptide binding score
HLA-A*02:01 = HLA-A*02:01 (Homo sapiens, UniProt P04439, D140Y/D185E/D98H/E176V/E277Q/G131W/G231S/I119V/I121R/I166T/I218V/L300P/L318F/N151K/N90K/P208A/P217A/Q86G/Q94H/R138H/R169H/T345S); conditions: for A*02:01 In Vitro Score: REVEAL score, positive control peptide set at 100%, greater than 50 = good or high affinity binding
Description: (§1) Actual binding affinities for certain HLA class I alleles (A*02:01, A*03:01. A*11:01, and B*08:01) were assessed in vitro for exemplary overlapping 9 amino acid peptide sequences within a portion of the 26 amino acid junction region spanning the CD28 and 4-1BB junction. Specifically, assessment was of a series of overlapping 9-mer peptides derived from the sequence […] (set forth in SEQ ID NO: 7), which contains a portion of the CD28 transmembrane domain and 4-1BB costimulatory domain spanning the junction between the domains (bond joining the two amino acids noted in underline). In addition, a series of overlapping 9-mer peptides of each of a number of different variants of this portion also were assessed, each variant containing a mutation or mutations in this region as described in Example 2.
(§2) The various 9-mer overlapping peptides were synthesized and their purity tested by MALDI-TOF Mass Spectrometry. The synthetic peptides were then incubated with recombinant MHC molecules to assess binding properties using the REVEAL Epitope Discovery System, which is a high-throughput binding assay that measures the degree to which each peptide is able to stabilize a ternary MHC-peptide complex (ProImmune, Oxford, United Kingdom). Each peptide was separately tested for this ability with respect to each of the HLA class I alleles, normalized to the degree observed for a positive control (known T cell epitope for the relevant allele). The results are reported as a score, in which the binding was normalized to the positive control peptide set at 100%.

HLA-A*03:01 = HLA-A*03:01 (Homo sapiens, UniProt P04439); conditions: positive control peptide set at 100%, greater than 50 = good or high affinity binding
Description: as §1, §2

HLA-A*11:01 = HLA-A*11:01 (Homo sapiens, UniProt P04439, A114D/D185E/E176A/F33Y/L180Q/S129P/T187R); set-up: key: % binding, normalized to positive control peptide set at 100%; conditions: binding normalized to positive control peptide set at 100%, greater than 50 considered good or high affinity binding
Description: as §1, §2

HLA-B*08:01 = HLA-B*08:01 (Homo sapiens, UniProt P01889, A93T/A95T/D138N/E176V/E187T/K202T/Q94N/R180D/S35A/V36M/Y33D/Y91F); set-up: key: % binding, normalized to positive control peptide set at 100%; conditions: binding normalized to positive control peptide set at 100%, greater than 50 considered good or high affinity binding
Description: as §1, §2

Molecule: IIFWVHRGR [9-mer variant junction peptide, K28H]
A*02:01 In Vitro Score (HLA-A*02:01): 4.70
A*03:01 In Vitro (HLA-A*03:01): 30.10
A*11:01 In Vitro Score (HLA-A*11:01): 77.50
B*08:01 In Vitro Score (HLA-B*08:01): 0.20

Molecule: IIFWVKRGR [9-mer of CD28/4-1BB junction region, mutation none]
A*02:01 In Vitro Score (HLA-A*02:01): 1.70
A*03:01 In Vitro (HLA-A*03:01): 24.30
A*11:01 In Vitro Score (HLA-A*11:01): 54.50
B*08:01 In Vitro Score (HLA-B*08:01): 0.00

Molecule: IIFWVLRGR [9-mer variant junction peptide, K28L]
A*02:01 In Vitro Score (HLA-A*02:01): 8.40
A*03:01 In Vitro (HLA-A*03:01): 2.80
A*11:01 In Vitro Score (HLA-A*11:01): 35.20
B*08:01 In Vitro Score (HLA-B*08:01): 0.40

Molecule: IIFWVQRGA [9-mer variant junction peptide, K28Q/R31A]
A*02:01 In Vitro Score (HLA-A*02:01): 95.30
A*03:01 In Vitro (HLA-A*03:01): 2.70
A*11:01 In Vitro Score (HLA-A*11:01): 56.50
B*08:01 In Vitro Score (HLA-B*08:01): 0.20

Molecule: IIFWVQRGR [9-mer variant junction peptide, K28Q]
A*02:01 In Vitro Score (HLA-A*02:01): 5.80
A*03:01 In Vitro (HLA-A*03:01): 18.00
A*11:01 In Vitro Score (HLA-A*11:01): 72.80
B*08:01 In Vitro Score (HLA-B*08:01): 0.10

Molecule: VAFIIFWVK [9-mer of CD28/4-1BB junction region, mutation none]
A*02:01 In Vitro Score (HLA-A*02:01): 0.70
A*03:01 In Vitro (HLA-A*03:01): 1.50
A*11:01 In Vitro Score (HLA-A*11:01): 109.20
B*08:01 In Vitro Score (HLA-B*08:01): 0.30

Molecule: VAFIIFWVR [9-mer variant junction peptide, K28R]
A*02:01 In Vitro Score (HLA-A*02:01): 1.20
A*03:01 In Vitro (HLA-A*03:01): 0.70
A*11:01 In Vitro Score (HLA-A*11:01): 34.60
B*08:01 In Vitro Score (HLA-B*08:01): 0.10

Molecule: WVARGRKKL [9-mer variant junction peptide, K28A]
A*02:01 In Vitro Score (HLA-A*02:01): 8.80
A*03:01 In Vitro (HLA-A*03:01): 1.30
A*11:01 In Vitro Score (HLA-A*11:01): 13.80
B*08:01 In Vitro Score (HLA-B*08:01): 32.40

B1: K28L: variant anti-CD19 CAR / junction region with K28L, numbering SEQ ID NO:5 (protein)
chain: FWVLVVVGGVLACYSLLVTVAFIIFWVLRGRKKLLYIFKQPFMRPVQTTQEEDGCSCRFPEEEEGGCEL
modifications: CD28-4-1BB
predicted or actual binding affinity or score for HLA class I (HLA-A*02:01; for at least one HLA allele (A*02:01, A*03:01, A*11:01, B*08:01) and/or at least one peptide, in silico or in vitro): reduced predicted or actual binding affinity or score

Second part, the molecule after the results:

A*02:01 In Vitro Score (HLA-A*02:01): 85.90
A*03:01 In Vitro (HLA-A*03:01): 42.90
A*11:01 In Vitro Score (HLA-A*11:01): 22.60
B*08:01 In Vitro Score (HLA-B*08:01): 0.90
Molecule: IIFWVKRGA [9-mer variant junction peptide, R31A]

A*02:01 In Vitro Score (HLA-A*02:01): 82.20
A*03:01 In Vitro (HLA-A*03:01): 15.90
A*11:01 In Vitro Score (HLA-A*11:01): 32.40
B*08:01 In Vitro Score (HLA-B*08:01): 1.70
Molecule: IIFWVKRGL [9-mer variant junction peptide, R31L]

A*02:01 In Vitro Score (HLA-A*02:01): 9.30
A*03:01 In Vitro (HLA-A*03:01): 4.30
A*11:01 In Vitro Score (HLA-A*11:01): 42.10
B*08:01 In Vitro Score (HLA-B*08:01): 0.90
Molecule: IIFWVKRGN [9-mer variant junction peptide, R31N]

A*02:01 In Vitro Score (HLA-A*02:01): 13.60
A*03:01 In Vitro (HLA-A*03:01): 16.20
A*11:01 In Vitro Score (HLA-A*11:01): 100.00
B*08:01 In Vitro Score (HLA-B*08:01): 0.40
Molecule: IIFWVKRGS [9-mer variant junction peptide, R31S]

A*02:01 In Vitro Score (HLA-A*02:01): 2.60
A*03:01 In Vitro (HLA-A*03:01): 25.30
A*11:01 In Vitro Score (HLA-A*11:01): 68.90
B*08:01 In Vitro Score (HLA-B*08:01): 0.00
Molecule: IIFWVSRGR [9-mer variant junction peptide, K28S]

A*02:01 In Vitro Score (HLA-A*02:01): 70.60
A*03:01 In Vitro (HLA-A*03:01): 0.70
A*11:01 In Vitro Score (HLA-A*11:01): 25.10
B*08:01 In Vitro Score (HLA-B*08:01): 0.10
Molecule: VAFIIFWVS [9-mer variant junction peptide, K28S]

A*02:01 In Vitro Score (HLA-A*02:01): 4.70
A*03:01 In Vitro (HLA-A*03:01): 4.10
A*11:01 In Vitro Score (HLA-A*11:01): 4.60
B*08:01 In Vitro Score (HLA-B*08:01): 34.10
Molecule: WVKRGAKKL [9-mer variant junction peptide, R31A]

A*02:01 In Vitro Score (HLA-A*02:01): 3.90
A*03:01 In Vitro (HLA-A*03:01): 1.40
A*11:01 In Vitro Score (HLA-A*11:01): 2.80
B*08:01 In Vitro Score (HLA-B*08:01): 47.60
Molecule: WVKRGHKKL [9-mer variant junction peptide, R31H]

A*02:01 In Vitro Score (HLA-A*02:01): 2.40
A*03:01 In Vitro (HLA-A*03:01): 0.90
A*11:01 In Vitro Score (HLA-A*11:01): 4.10
B*08:01 In Vitro Score (HLA-B*08:01): 65.90
Molecule: WVKRGNKKL [9-mer variant junction peptide, R31N]

A*02:01 In Vitro Score (HLA-A*02:01): 3.00
A*03:01 In Vitro (HLA-A*03:01): 1.90
A*11:01 In Vitro Score (HLA-A*11:01): 11.80
B*08:01 In Vitro Score (HLA-B*08:01): 56.10
Molecule: WVKRGSKKL [9-mer variant junction peptide, R31S]

A*11:01 In Vitro Score (HLA-A*11:01): 5.00
Molecule: WVQRGNKKS [9-mer variant junction peptide, mutation printed K28Q/L34S]
